These results are taken from patent US9518038B2, “Condensation product of theanine derivative and carboxylic acid coumarin derivative, its intermediate, preparation method and use thereof” (SHANDONG YINGDONG YINGHAO BIOTECHNOLOGY, INC., priority 2012, dated 2016).

Test [1] deals with human gastric cancer cells BGC-823. As to the kind of experiment: MTT growth inhibition, BGC-823 cells. Type of test: cell-based. The conditions noted are these: 72 h after treatment, read-out: Drug concentration (IC50) at which 50% cancer cells survived. The text has this: (§1) Cell lines and cell culture: human lung cancer cells A549 and H460, human breast cancer cells MCF-7 and MDA-MB-231, human gastric cancer cells BGC-823, human prostate cancer cells PC-3, human chronic leukemia cells K562, human lymphoma cells U937, human liver cancer cells SMMC7721 and HepG2, human colon cancer cells HT29, human pancreatic cancer cells PANC-1 and BxPC3, human cervical cancer Hela cell lines, human brain tumor cells Daoy, human neuroma cells D54 and human oral epidermoid cancer cells KBV200 line with strong drug resistance, mouse melanoma cells B16, and highly metastatic Lewis lung cancer cell lines were purchased from American Type Culture Collection of the U.S. These cells were cultured with DMEM and RPMI-1640 culture solutions separately.
(§2) The procedure was as follows:
(§3) (1) 0.25% trypsin was used to digest cancer cells in a logarithmic growth phase to prepare a single-cell suspension, the concentration of cells was adjusted to 5×10^4/mL, and the adjusted suspension was inoculated into a 96-well culture plate with 100 μl per well;
(§4) (2) The culture plate was transferred into a 37° C. incubator with a saturated humidity and 5% of CO2 and cultured for 24 h; the compounds and the intermediates thereof obtained in embodiments 1-7 and the compound as represented by formula (IIIa) or the positive control anti-cancer drug with the concentration of 1-1000 μM/L were added to enable the final concentration to be 0.1-1500 μM/L. Control wells (only added with 200 μl of cell suspension) and drug-free blank control wells (containing the solvent of 0.01% DMSO) were set, each group included 8 wells, and the plate was placed into the 37° C. incubator with saturated humidity and 5% of CO2 for culturing;
(§5) (3) The 96-well plate was taken out at 48 h and 72 h after dosing, the original culture medium was carefully removed by suction, 100 μl of serum-free DMEM culture medium and 10 μl of MTT (5 mg/mL) solution were added in each well. The plate was continuously cultured for another 4 h and then the culture was terminated;
(§6) (4) The supernatant in the wells was carefully removed by suction, each well was added with 150 μl of DMSO and shaked at room temperature for 10-15 min to fully dissolve crystals.
(§7) (5) Colorimetric analysis: the wavelength was selected as 570 nm, the light absorbance (A value) of each well was determined on the microplate reader and the results were recorded; the experiment was repeated for three times;
(§8) (6) the experimental results were calculated according to the following formula: relative survival rate=(A value of each experimental group/A value of cell control group)×100%
(§9) Calculation of median-effect concentration (IC50, namely the drug concentration at which the inhibition rate is 50%, also known as half inhibitory concentration):
(§10) IC50 of the detected component was calculated by using a regression equation.

The subject of test [2] is human colon cancer cells HT29. As to the kind of experiment: MTT growth inhibition, HT29 cells. Type of test: cell-based. To be noted: HT-29, 72 h after treatment, read-out: Drug concentration (IC50) at which 50% cancer cells survived.
Description: as §1, §2, §3, §4, §5, §6, §7, §8, §9, §10

Test [3] concerns human lung cancer cells A549 xenograft. As to the kind of experiment: In-vivo growth of A549 xenografts in nude mice. Also on record: species or system BALB/c nude mice. The conditions noted are these: Mus musculus, ip, vs DMSO solvent control, read-out: Curative effect (inhibition rate %) of tumor weight; for inhibition in vivo at 60 mg/kg: 60 mg/kg intraperitoneal once a day; for inhibition in vivo at 90 mg/kg: 90 mg/kg intraperitoneal once a day. On the procedure: (§11) RPMI1640 and DMEM culture solutions: Hyclone Company; inactivated fetal bovine serum: Hyclone Company, preserved at −20° C.; trypsin: Amersco Company; and 0.4% trypan blue: Sigma Company;
(§12) (3) Observation of growth of tumors in nude mice: the activities (including food intake, traits of urine and stool, mental state and the like) of the nude mice and the tumor growth time and growth situation of the transplanted tumors were observed every day, the body weight and the size of the tumors were measured once every 2-3 days. The long diameter a and the short diameter b (mm) of each tumor were measured by a vernier caliper to calculate the volume, wherein the volume V=π1/2·ab^2 (mm^3);
(§13) (4) sacrifice of animals: the mice were anesthetized and photoed after treatment experiments; the nude mice were sacrificed by breaking neck, the tumor tissues were stripped under sterile conditions and the weight of the tumors was weighed; and the effects of the drugs on pathology and toxicity of the various organs and tissues were detected.

Test [4] has as its system human breast cancer cells MCF-7. As to the kind of experiment: MTT growth inhibition, MCF-7 cells. In kind it is cell-based. The conditions noted are these: MCF7, 72 h after treatment, read-out: Drug concentration (IC50) at which 50% cancer cells survived.
Description: as §1, §2, §3, §4, §5, §6, §7, §8, §9, §10

For test [5], the system named is human lung cancer cells H460. As to the kind of experiment: MTT growth inhibition, H460 cells. Type of test: cell-based. The conditions noted are these: NCI-H460, 72 h after treatment, read-out: Drug concentration (IC50) at which 50% cancer cells survived.
Description: as §1, §2, §3, §4, §5, §6, §7, §8, §9, §10

For test [6], the system named is human brain tumor cells Daoy. The experiment in a line: MTT growth inhibition, Daoy cells. In kind it is cell-based. The conditions noted are these: Homo sapiens, 72 h after treatment, read-out: Drug concentration (IC50) at which 50% cancer cells survived.
Description: as §1, §2, §3, §4, §5, §6, §7, §8, §9, §10

The subject of test [7] is Caski human cervical cancer cells. The experiment in a line: MTT growth inhibition, Caski cells. Type of test: cell-based. To be noted: Ca-Ski, 72 h after treatment, read-out: Drug concentration (IC50) at which 50% cancer cells survived.
The test system of test [8] is human breast cancer cells MCF-7 xenograft. The experiment in a line: In-vivo growth of MCF-7 xenografts in nude mice. Also on record: species or system BALB/c nude mice. To be noted: Mus musculus, MCF7, ip, vs DMSO solvent control, read-out: Curative effect (inhibition rate %) of tumor weight; for inhibition in vivo at 60 mg/kg: 60 mg/kg intraperitoneal once a day; for inhibition in vivo at 90 mg/kg: 90 mg/kg intraperitoneal once a day. On the procedure:
as §11, §12, §13

Test [9] concerns human lymphoma cells U937. The experiment in a line: MTT growth inhibition, U937 cells. Type of test: cell-based. The conditions noted are these: Homo sapiens, U-937, 72 h after treatment, read-out: Drug concentration (IC50) at which 50% cancer cells survived. On the procedure: as §2, §5, §6, §7, §8, §10
For a further test, the system named is Bcl-2/Bax. The experiment in a line: Western Blotting, Bcl-2/Bax level. Type of test: cell-based. The conditions noted are these: human liver cancer cells, Lewis lung cancer cells and other cancer cell lines and tumor tissues, read-out: Effective concentration (IC50) for inhibition of Bcl-2/Bax. The source says:
(§14) Antibodies: primary antibodies of VEGFR, EGFR, c-Met, K-Ras, H-Ras, Akt, NF-κB, Cyclin D1, ER-alpha, Dvl-1, Dvl-2, Dvl-3, MMP-9, MMP2, β-catenin, Bcl-2, Bax, p53, p21, E-cadherin and Caspase3 protein, purchased from American Cell Signaling Technology Company and Santa Cruz Technology Company; and H3 acetylation, H4 acetylation and HDAC (HDAC3, HDAC4 and the like) Antibody Sample Kits, purchased from Cell Signaling Technology Company of the U.S.
(§15) (3) polyacrylamide gel electrophoresis (SDS-PAGE): an equal amount of protein lysate sample was used to separate protein, film transfer, and blocking, treated with appropriate primary antibodies and secondary antibodies in sequence, and the film was washed, then the color was developed with ECL kit, and a blot protein band was detected by exposure of an X-ray film; and a Gel-Pro Analyzer was used for quantitative analysis of gray degree, optical density value of the control group and the drug treatment group in various concentration were respectively compared with that of internal reference, the obtained ratios were respectively compared with the control group, and the protein expression level was semi-quantified.

For the next test, the system named is Cyclin D1. As to the kind of experiment: Western Blotting, Cyclin D1 level. In kind it is cell-based. To be noted: human liver cancer cells, Lewis lung cancer cells and other cancer cell lines and tumor tissues, read-out: Effective concentration (IC50) for inhibition of Cyclin D1.
Description: as §14, §15

For `CCNC(=O)CC[C@H](N)C(=O)OC` [Compound IIa, theanine methyl ester], the IC50 in test [1] came out at 310 µM; in test [2], 250 µM; in test [4] it was 450 µM; in test [5] it was 500 ± 40 µM; in test [6], 400 µM; in [7] it was 320 µM. Also, in [9], the IC50 is 350 µM. The values for the inhibition in vivo at 60 mg/kg in test [3] and in test [8] were 29.6% and 39.8%, respectively. The values for the inhibition in vivo at 90 mg/kg in test [3] and in [8] were 31.7% and 41.3%, respectively.

Regarding `CCNC(=O)CC[C@@H](NC(=O)c1cc2cc(Cl)ccc2oc1=O)C(=O)OCC` [Compound Ic, (R)-2-(6-CI-2-oxo-2H-benzopyran-3-carboxamido)-5-ethylamino-5-oxo-pentanoic acid ethyl ester], the IC50 is 66 µM in [1]; below 100 µM with Bcl-2/Bax; 105 µM in test [2]; 95 µM in test [4]; 106 ± 50 µM in [5]; 86 µM in [6]. Also, the IC50 with Cyclin D1 is below 100 µM; in test [7], 86 µM; in test [9], 52 µM. In addition, the inhibition in vivo at 60 mg/kg in test [3] came to 61.6%; in test [8], 58.6%. Also, the figures for the inhibition in vivo at 90 mg/kg in test [3] and in [8] were 67.6% and 68.8%, respectively.

Take `CCNC(=O)CC[C@@H](NC(=O)c1cc2cc(Br)cc(Br)c2oc1=O)C(=O)OCC` [Compound Ih, (R)-2-(6,8-dibromo-2-oxo-2H-benzopyran-3-carboxamido)-5-ethylamino-5-oxo-pentanoic ethyl ester]: the IC50 in test [1] is 85 µM; in the test with Bcl-2/Bax it was below 70 µM; in [2], 108 µM; in test [4], 91 µM; in [5], 109 µM; in [6], 121 µM. Also, the IC50 with Cyclin D1 is below 70 µM; in test [7], 53 µM; in [9], 57 µM. Also, the values for the inhibition in vivo at 60 mg/kg in [3] and in test [8] were 53.8% and 58.9%, respectively. The inhibition in vivo at 90 mg/kg in [3] was 63.8%; in test [8], 75.9%.

Turning to `CCNC(=O)CCC(NC(=O)c1cc2cc(F)ccc2oc1=O)C(=O)OCC` (stereo in doubt) [Compound Ie, (R)-2-(6-F-2-oxo-2H-benzopyran-3-carboxamido)-5-ethylamino-5-oxo-pentanoic acid ethyl ester], the IC50 is 143 µM in test [1]; below 180 µM in the test with Bcl-2/Bax; 240 µM in test [2]; 115 µM in test [4]; 100 µM in [5]; 210 µM in [6]. The IC50 was below 160 µM with Cyclin D1, 230 µM in test [7] and 126 µM in test [9]. The inhibition in vivo at 60 mg/kg in [3] came out at 55.5%; in [8], 66.8%. Moreover, the inhibition in vivo at 90 mg/kg was found to be 61.5% in [3] and 69.8% in test [8].

`CCNC(=O)CC[C@@H](NC(=O)c1cc2cc(Cl)cc(Cl)c2oc1=O)C(=O)OCC` [Compound Ig, (R)-2-(6,8-dichloro-2-oxo-2H-benzopyran-3-carboxamido)-5-ethylamino-5-oxo-pentanoic ethyl ester]: the IC50 was 60 µM in test [1]; below 70 µM in the test with Bcl-2/Bax; 99 µM in test [2]; 75 µM in test [4]; 93 µM in test [5]; 110 µM in [6]. The IC50 in the test with Cyclin D1 was below 70 µM; in [7], 36 µM; in test [9], 38 µM. In addition, the inhibition in vivo at 60 mg/kg in test [3] was 56.6%; in [8], 65.7%. The inhibition in vivo at 90 mg/kg in test [3] came out at 66.6%; in [8], 76.9%.

For the molecule `CCNC(=O)CCC(NC(=O)c1cc2ccccc2oc1=O)C(=O)OCC` (stereo not drawn) [Compound Ib, ethyl 5-ethylamino-5-oxo-2-(2-oxo-2H-benzopyran-3-carboxamido)pentanoate], the IC50 was 127 µM in test [1]; below 120 µM with Bcl-2/Bax; 105 µM in test [2]; 103 µM in test [4]; 113 µM in [5]; 135 µM in test [6]. The IC50 in the test on Cyclin D1 is below 120 µM; in test [7], 116 µM; in [9], 90 µM. In addition, the inhibition in vivo at 60 mg/kg amounted to 53.6% in test [3] and 52.6% in test [8]. Also, the results for the inhibition in vivo at 90 mg/kg in test [3] and in test [8] were 60.6% and 63.8%, respectively.

Turning to `CCNC(=O)CC[C@H](N)C(=O)OCC` [Compound IIb, theanine ethyl ester], the IC50 in test [1] is 600 µM; in test [2], 600 µM; in [4] it was 300 µM; in [5] it was 400 ± 10 µM; in test [6], 400 µM; in [7], 300 µM. Also, the IC50 in [9] was 400 µM. In addition, the inhibition in vivo at 60 mg/kg was found to be 33.3% in test [3] and 43.2% in test [8]. In addition, the values for the inhibition in vivo at 90 mg/kg in test [3] and in [8] were 38.6% and 46.8%, respectively.
